Laboratory results taken from US10252258B2, “Method for separating and concentrating target substance using novel cationic graft polymer” (priority 2014, dated 2019).

Tested on: Escherichia coli
Experiment: Survival (viability) of bacteria collected using surfactant-containing solution
Format: cell-based
Conditions: 1% surfactant solution, 20° C.; then capture with 10% cationic graft polymer; one hundredth of suspension cultured 37° C. 18 hours; Control 1 >5000
Procedure: Escherichia coli precipitated on a separating agent in a blood collection tube is collected while being alive using a non-ionic surfactant-containing solution.
The produced Escherichia coli was added to a physiological saline solution in an amount of 2×10^8 cell/mL, and the resulting mixture was used as a sample.
To a blood collection tube, 3 mL of a bacterial solution in which Escherichia coli was dispersed in a physiological saline solution was added, and was centrifuged at 3000 rpm for five minutes. Thereafter, the supernatant was removed. Subsequently, 0.5 mL of a 1% surfactant solution was added to the blood collection tube, and a bacterial cell precipitated on a surface of a separating agent was dispersed.
The bacterial cell suspension was allowed to stand at 20° C. for 30 minutes and three hours. Thereafter, 100 μL of a 10% cationic graft polymer and 100 μL of a reaction solution were mixed and allowed to react for one minute. Thereafter, the resulting product was centrifuged for 30 seconds by a tabletop small centrifugal machine to obtain a precipitation pellet. The supernatant was removed, and the resulting precipitation pellet was completely dispersed with 500 μL of a dispersion solution to obtain a suspension. One hundredth of the suspension was cultured at 37° C. for 18 hours using a LB bacteria culture agar medium, and the number of living bacteria was confirmed by the number of colonies.
As a control, a physiological saline solution was used in place of the surfactant solution (Control 1).

| Compound | the number of colonies, allowed to stand for 30 minutes | the number of colonies, allowed to stand for 3 hours |
| --- | --- | --- |
| sucrose laurate | 4000 | 3200 |
| C[C@H](CCC(=O)NCCC[N+](C)(C)CCCS(=O)(=O)[O-])[C@H]1CC[C@H]2[C@@H]3[C@H](O)C[C@@H]4C[C@H](O)CC[C@]4(C)[C@H]3C[C@H](O)[C@]12C [CHAPS] | 84 | 61 |
